Measurements as given in patent EP1383793B1 (priority 2000, dated 2001).
Positions of bridges follow the written chain, without caps; N, C: chain ends. Residues, ends and D or L forms follow the SMILES beside them. *: point of attachment. Biotin = O=C1N[C@H]2[C@H](CS[C@H]2CCCCC(=O)*)N1

Columns and labels:
IGF-1R [1] = target: T1, IGF-1R (Homo sapiens, UniProt P08069); assay: Phage ELISA, binding of phage-displayed peptides to IGF-1R; details: 405 nm
T1 construct: Soluble IGF-1R was obtained from R&D Systems; purchased R&D Systems 391-GR/CF
T1 sequence (P08069 31-736 limits assumed): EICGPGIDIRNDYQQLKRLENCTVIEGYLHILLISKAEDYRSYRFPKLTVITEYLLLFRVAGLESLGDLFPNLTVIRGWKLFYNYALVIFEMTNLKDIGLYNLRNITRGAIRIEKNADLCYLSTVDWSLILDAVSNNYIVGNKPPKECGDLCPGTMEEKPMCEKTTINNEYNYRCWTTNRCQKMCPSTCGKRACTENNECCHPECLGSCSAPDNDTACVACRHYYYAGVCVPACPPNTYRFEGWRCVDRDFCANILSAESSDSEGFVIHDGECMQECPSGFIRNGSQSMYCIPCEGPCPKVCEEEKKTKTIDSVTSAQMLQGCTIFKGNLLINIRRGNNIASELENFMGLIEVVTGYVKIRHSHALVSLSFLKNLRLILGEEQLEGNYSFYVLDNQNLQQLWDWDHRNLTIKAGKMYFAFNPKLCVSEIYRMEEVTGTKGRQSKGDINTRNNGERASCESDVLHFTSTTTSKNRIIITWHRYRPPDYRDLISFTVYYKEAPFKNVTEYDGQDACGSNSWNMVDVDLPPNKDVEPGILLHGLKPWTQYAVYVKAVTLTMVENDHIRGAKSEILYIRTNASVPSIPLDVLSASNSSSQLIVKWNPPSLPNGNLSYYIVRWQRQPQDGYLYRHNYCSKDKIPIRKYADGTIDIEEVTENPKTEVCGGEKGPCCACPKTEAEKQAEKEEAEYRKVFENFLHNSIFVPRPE
T1 sequence (P08069 741-935 limits assumed): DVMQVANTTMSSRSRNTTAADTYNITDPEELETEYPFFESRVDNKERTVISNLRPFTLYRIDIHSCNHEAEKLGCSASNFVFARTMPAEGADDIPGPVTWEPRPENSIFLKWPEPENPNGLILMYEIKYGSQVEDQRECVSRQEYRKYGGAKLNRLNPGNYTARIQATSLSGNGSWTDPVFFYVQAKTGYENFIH
Protocol: Figures 1A-10G. Amino acid sequences comprising the motif of Formulas 1 through 10. […] One hundred microliters of this solution was added to an appropriate number of wells in a 96-well microtiter plate (MaxiSorp plates, Nunc) and incubated overnight at 4°C. […] Subsequent steps are the same for pooled and clonal phage. […] Phage resuspended in MPBS were added to duplicate wells (100 µl/well) and incubated at RT for 1 h. […] Incubation was for 1 h at RT, followed by PBS washes as described. […] Phage ELISA. […] The wells were blocked with 200 µl of MPBS for 1.5 h at RT. Phage were added at 100 µl per well. Peptides were added as noted below and allowed to incubate at RT for 3 h. The plates were washed 3 times with PBST. A solution of 1:3000 diluted HRP:Anti-M13 conjugate at 100 µl per well of was added for 1 h. Following a repeat of the washing, 100 µl of ABTS was added for 15-30 min. […] Phage ELISA. […] Phage were added at 100 µl per well. Peptides were added as noted below and allowed to incubate at RT for 3 h. The plates were washed 3X with PBST. A solution of 1:3000 diluted HRP:Anti-M13 Conjugate at 100 µl per well of was added for 1 h. Following a repeat of the washing, 100 µl of ABTS was added for 15-30 min. The OD405 was measured using a SpectraMax 340 Microplate Spectrophotometer.

IR [2] = target: T2, IR (Homo sapiens, UniProt P06213); assay: Phage ELISA, binding of phage-displayed peptides to IR
T2 construct: composed of the extracellular domains of both the α and β chains of the natural receptor; made in house; background b13 names human embryonic kidney 293 cells for the Bass et al. construct
T2 sequence (P06213 28-758 limits assumed): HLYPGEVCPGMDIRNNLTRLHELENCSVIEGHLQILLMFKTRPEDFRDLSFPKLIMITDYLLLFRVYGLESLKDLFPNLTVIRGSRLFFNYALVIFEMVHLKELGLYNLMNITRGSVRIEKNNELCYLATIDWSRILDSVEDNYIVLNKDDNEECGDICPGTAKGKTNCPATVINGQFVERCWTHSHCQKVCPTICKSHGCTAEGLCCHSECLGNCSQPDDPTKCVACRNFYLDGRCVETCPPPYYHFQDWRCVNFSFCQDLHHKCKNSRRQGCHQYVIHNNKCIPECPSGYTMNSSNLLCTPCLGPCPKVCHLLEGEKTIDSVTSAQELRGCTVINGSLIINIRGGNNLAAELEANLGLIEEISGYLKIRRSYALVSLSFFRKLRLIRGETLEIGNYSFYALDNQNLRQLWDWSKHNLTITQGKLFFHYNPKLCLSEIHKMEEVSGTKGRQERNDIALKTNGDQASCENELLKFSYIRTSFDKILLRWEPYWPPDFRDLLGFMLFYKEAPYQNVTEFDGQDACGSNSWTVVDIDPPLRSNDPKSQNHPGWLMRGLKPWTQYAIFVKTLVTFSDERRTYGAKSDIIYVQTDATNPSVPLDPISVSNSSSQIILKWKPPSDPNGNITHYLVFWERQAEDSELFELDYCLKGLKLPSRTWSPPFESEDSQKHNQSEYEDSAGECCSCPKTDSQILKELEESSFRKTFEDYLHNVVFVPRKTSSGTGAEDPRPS
T2 sequence (P06213 763-956 limits assumed): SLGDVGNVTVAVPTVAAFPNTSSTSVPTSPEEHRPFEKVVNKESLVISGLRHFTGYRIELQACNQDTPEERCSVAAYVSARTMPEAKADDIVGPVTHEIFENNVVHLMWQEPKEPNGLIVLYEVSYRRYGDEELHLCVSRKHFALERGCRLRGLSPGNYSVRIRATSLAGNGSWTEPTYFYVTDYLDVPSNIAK
Protocol: Amino acid sequences comprising the motif of Formulas 1 through 10. […] Fifty microliters of this solution was added to an appropriate number of wells in a 96-well microtiter plate (MaxiSorp plates, Nunc) and incubated overnight at 4°C. […] To isolate specific binders, each library was panned against a soluble form of the human IR. This IR is composed of the extracellular domains of both the α and β chains of the natural receptor, as well as the constant domain from immunoglobulin Fc, retaining the β-α-α-β structure described above. Because the IR is expressed in a eukaryotic system, disulfide bond formation and glycosylation patterns should mimic the wild-type receptor. The details of this recombinant protein construct are described in Bass et al. (1996). Phage ELISA. […] The wells were blocked with 200 µl of MPBS for 1.5 h at RT. […] Peptides were added as noted below and allowed to incubate at RT for 3 h. The plates were washed 3 times with PBST. A solution of 1:3000 diluted HRP:Anti-M13 conjugate at 100 µl per well of was added for 1 h. Following a repeat of the washing, 100 µl of ABTS was added for 15-30 min. […] Phage ELISA. […] Peptides were added as noted below and allowed to incubate at RT for 3 h. […] A solution of 1:3000 diluted HRP:Anti-M13 Conjugate at 100 µl per well of was added for 1 h. Following a repeat of the washing, 100 µl of ABTS was added for 15-30 min. The OD405 was measured using a SpectraMax 340 Microplate Spectrophotometer.

adipocytes = assay: 3H-glucose uptake into adipocytes (fat cell assay, FFC); type: cell-based, Mouse; set-up: key to Resp.: -2 (antagonist); +2 (agonist); details: for Resp.: Subjective ranking, basal and sub maximal insulin, includes series A; for ED50: Estimated, not calculated values; for ED50 in the effect assay (FFC): best peptides, agonists
[3] = target: T3, purified insulin receptor (Homo sapiens, UniProt P06213); assay: Holoenzyme phosphorylation assay (IR autophosphorylation, Western blot); type: biochemical
T3 construct: host or cells: 'Wheat Germ Agglutinin Expression System' (so in the source)
T3 sequence (P06213 28-758 limits assumed): as the sequence (P06213 28-758 limits assumed) above
T3 sequence (P06213 763-1382 limits assumed): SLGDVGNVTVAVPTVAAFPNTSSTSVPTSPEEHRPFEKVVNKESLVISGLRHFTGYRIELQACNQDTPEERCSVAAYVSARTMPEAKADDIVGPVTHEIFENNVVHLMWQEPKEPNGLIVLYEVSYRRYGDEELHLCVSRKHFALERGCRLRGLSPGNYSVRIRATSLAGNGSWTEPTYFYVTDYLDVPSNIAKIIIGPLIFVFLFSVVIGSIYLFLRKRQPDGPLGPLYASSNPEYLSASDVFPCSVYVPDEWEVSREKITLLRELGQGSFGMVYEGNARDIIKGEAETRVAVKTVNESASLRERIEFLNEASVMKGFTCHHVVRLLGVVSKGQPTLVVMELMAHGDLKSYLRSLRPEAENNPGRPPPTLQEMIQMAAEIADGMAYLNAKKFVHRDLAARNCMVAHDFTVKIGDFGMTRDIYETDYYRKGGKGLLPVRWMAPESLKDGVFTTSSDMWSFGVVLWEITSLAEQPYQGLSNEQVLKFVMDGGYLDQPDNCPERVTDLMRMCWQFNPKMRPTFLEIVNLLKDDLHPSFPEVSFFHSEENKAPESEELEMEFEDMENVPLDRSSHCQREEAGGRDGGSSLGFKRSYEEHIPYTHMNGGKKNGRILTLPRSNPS
Protocol: Alternatively, IR autophosphorylation was determined using a holoenzyme phosphorylation assay. […] The reaction was stopped by adding 50 µl of gel loading buffer containing β-mercaptoethanol (Bio-Rad Laboratories, Inc., Hercules, CA). The samples were run on 4-12% SDS-polyacrylamide gels. Western Blot analysis was performed by transferring the proteins onto nitrocellulose membrane. The membrane was blocked in PBS containing 3% milk overnight. The membrane was incubated with anti-phosphotyrosine 4G10 HRP labeled antibody (Upstate Biotechnology) for 2 h. Protein bands were visualized using SuperSignal West Dura Extended Duration Substrate Chemiluminescence Detection System (Pierce Chemical Co.).

Insulin receptor [4] = target: T4, Insulin receptor (Homo sapiens, UniProt P06213); assay: BIAcore competition: IR pre-incubated with test substance, injected over immobilised insulin; type: binding; details: peptide about 40 µM, IR 450 nM; IR alone 128 RU
T4 construct: composed of the extracellular domains of both the α and β chains of the natural receptor; made in house; background b13 names human embryonic kidney 293 cells for the Bass et al. construct
T4 sequence (P06213 28-758 limits assumed): as the sequence (P06213 28-758 limits assumed) above
T4 sequence (P06213 763-956 limits assumed): as the sequence (P06213 763-956 limits assumed) above
Protocol: Flowcell-1 was used for background binding to correct for any non-specific binding. […] The surface was regenerated with 25 mM NaOH. […] Thus, the system was validated for competition studies. […] The amino acid sequences referred to in the tables are identified in Figures 47 and 48, except the 447 and 2A9 sequences, which are shown below. TABLE 9: BIAcore Results-Fusion Proteins Compete for Binding to IR

IR [5] = target: T2, IR; assay: Phage ELISA, competition of phage binding by soluble synthetic peptides, IR-coated wells; details: Insulin Receptor
Protocol: (§1) Peptide Competition. […] Twenty microliters of the stock synthetic-peptide solution was added to Row A. A series of 20 µl into 100 µl dilutions were performed until Row G. Twenty microliters were discarded from Row G to maintain 100 µl per well. Row H was reserved as no peptide wells. […] The volume was maintained by the addition of 18 µl of the phage solution to Row A.
(§2) Phage ELISA. […] The wells were blocked with 200 µl of 2% (w/v) Carnation non-fat dry milk in PBS for 1.5 h at RT. Phage were added at 100 µl per well. Peptides were added as noted below and allowed to incubate at RT for 3 h. The plates were washed 3X with PBST. A solution of 1:3000 diluted HRP:Anti-M13 Conjugate at 100 µl per well of was added for 1 h. Following a repeat of the washing, 100 µl of ABTS was added for 15-30 min. The OD405 was measured using a SpectraMax 340 Microplate Spectrophotometer.
(§3) Peptide Competition. Peptide Competition Curves were produced during the phage ELISA across rows in triplicate. The stock synthetic peptide solution was added to Column 12 so that the total volume totaled 150 µl (additional phage solution was added when necessary). A serial dilution was made by transferring 50 µl from Column 12 into 100 µl in Column 11, 50 µl from Column 11 into 100 µl in Column 10, and continuing the serial dilution until Column 2. Fifty microliters were discarded from Column 2 to maintain 100 µl per well. Column 1 was reserved as no peptide wells.
(§4) A p53-like peptide that binds to MDM2 was used as a negative control.

IGF-1R [6] = target: T1, IGF-1R; assay: Phage ELISA, competition of phage binding by soluble synthetic peptides, IGF-1R-coated wells; details: IGF Receptor
Protocol: as §1, §2, §3, §4

[7] = Precipitate in diluted peptide stock prior to adding to the fat cell assay; solubility under assay conditions; type: physicochemical; details: for Comments (precipitation): diluted stock prior to adding to assay
[8] = target: human IGF-1 receptor (HIGF-1R) (Homo sapiens, UniProt P08069); assay: 125I-IGF-1 competition binding assay on solubilised purified receptor; details: Kd HIGF1R / Kd HIR
Chain of human IGF-1 receptor (HIGF-1R) (P08069 31-736 limits assumed): as the sequence (P08069 31-736 limits assumed) above
Chain of human IGF-1 receptor (HIGF-1R) (P08069 741-1367 limits assumed): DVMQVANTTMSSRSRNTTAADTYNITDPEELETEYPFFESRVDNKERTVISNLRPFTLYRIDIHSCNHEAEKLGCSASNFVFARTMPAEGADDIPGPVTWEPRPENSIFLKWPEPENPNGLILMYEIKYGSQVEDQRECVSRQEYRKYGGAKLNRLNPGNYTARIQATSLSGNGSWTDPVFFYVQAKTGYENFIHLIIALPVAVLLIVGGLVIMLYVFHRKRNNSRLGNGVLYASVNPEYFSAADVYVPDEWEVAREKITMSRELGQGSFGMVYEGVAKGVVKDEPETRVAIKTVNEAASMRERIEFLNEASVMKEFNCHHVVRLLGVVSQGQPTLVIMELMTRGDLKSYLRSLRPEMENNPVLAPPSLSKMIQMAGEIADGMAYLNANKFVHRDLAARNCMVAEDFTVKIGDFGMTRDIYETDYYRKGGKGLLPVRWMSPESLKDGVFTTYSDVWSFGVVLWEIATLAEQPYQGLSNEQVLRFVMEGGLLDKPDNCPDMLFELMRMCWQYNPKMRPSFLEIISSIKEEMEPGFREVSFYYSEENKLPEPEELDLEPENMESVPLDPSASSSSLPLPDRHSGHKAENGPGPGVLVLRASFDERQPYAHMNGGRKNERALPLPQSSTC

Insulin receptor [9] = target: T4, Insulin receptor; assay: Heterogeneous time-resolved fluorescence assay (TRFA) on insulin receptor; type: binding; details: peptide at 30 µM
Protocol: In this assay, saEu forms a ternary complex with bP and IR (i.e., IR:bP:saEu complex). The TRFD assay format is well established, sensitive, and quantitative (Tompkins et al., 1993). The assay can use a single-chain antibody or a biotinylated peptide.
In these assays, soluble IR is coated on the surface of microtiter wells, blocked by a solution of 0.5% BSA and 2% non-fat milk in PBS, and then incubated with biotinylated peptide or rVab. Unbound bP is then washed away and saEu is added to complex with receptor-bound bP. Upon addition of the acidic enhancement solution, the bound europium is released as free Eu^3+ which rapidly forms a highly fluorescent and stable complex with components of the enhancement solution. The IR:bP bound saEu is then converted into its highly fluorescent state and detected by a detector such as Wallac Victor II (EG&G Wallac, Inc.)
• a. Heterogeneous Time-Resolved Fluorescence Assay. […] The plates were blocked with TBS containing 2% milk and 0.5% BSA for 1 h at RT followed by three TBS washes. […] After TBS wash, europium-labeled streptavidin at 1 µg/ml in assay buffer (100 mM Tris-HCl, pH 7.8; 150 mM NaCl; 0.5% BSA; 0.05% bovine Ig; 0.05% NaN3; 0.01% Tween-20) was added to the plates and incubated for 1 h. To test binding of rVab antibodies to IR, Eu-labeled rVab antibodies in assay buffer were added to the plates and incubated for 2 h to overnight. After incubation with Eu-labeled streptavidin (for peptide test) or europium-labeled rVabs, the plates were washed 5 times with Tris-buffered saline (pH 7.5) containing 0.1 % Tween-20 (TTBS) and tapped dry. Sixty microliters of EG&G Wallac enhancement solution (100 mM acetone-potassium hydrogen pthalate, pH 3.2; […] 2-naphtyltrifluoroacetate; […] tri(n-octyl)-phosphine oxide; 0.1 % Triton X-100) was added into each well, and the plates were placed onto a shaker for 20 min at RT. […] Homogeneous Time-Resolved Fluorescence Assay. […] For library screening, 20 µM of small organic molecules in 2 % DMSO are included in the mixture.

**Q.** Which results are given for `CC[C@H](C)[C@H](NC(=O)[C@H](CCC(=O)O)NC(=O)[C@@H](N)CCCCN)C(=O)N[C@@H](CCC(=O)O)C(=O)N[C@@H](C)C(=O)N[C@@H](CCC(=O)O)C(=O)N[C@@H](Cc1c[nH]c2ccccc12)C(=O)NCC(=O)N[C@@H](CCCNC(=N)N)C(=O)N[C@H](C(=O)N[C@@H](CCCNC(=N)N)C(=O)N[C@H]1CSSC[C@@H](C(=O)N[C@H](C(=O)NCC(=O)NCC(=O)N[C@@H](CCCCN)C(=O)N[C@@H](CCCCNC(=O)CCCC[C@@H]2SC[C@@H]3NC(=O)N[C@@H]32)C(N)=O)C(C)C)NC(=O)[C@H](CCCNC(=N)N)NC(=O)CNC(=O)[C@H](Cc2ccc(O)cc2)NC(=O)[C@H](C(C)C)NC(=O)[C@H](CC(C)C)NC1=O)C(C)C` [Clone 20A4] (H-KEIEAEWGRVRCLVYGRCVGGKK(Biotin)-NH2; disulfide 12-18 (inferred); N-terminus assumed)?
**A.** Absorbance Values sIGF-1R (IGF-1R [1]): 0.21; Absorbance Values IR (IR [2]; 405 nm): 1.61; Resp. (adipocytes): -1; Autophosph. Blot [3]: 0; Result (RUs) (Insulin receptor [4]): 41.8 RUs

**Q.** For `CC(C)[C@H](NC(=O)[C@H](C)NC(=O)[C@H](CO)NC(=O)[C@@H](NC(=O)[C@H](Cc1ccccc1)NC(=O)[C@@H](NC(=O)[C@@H](NC(=O)[C@H](CC(=O)O)NC(=O)[C@H](CCCCN)NC(=O)[C@H](Cc1ccc(O)cc1)NC(=O)[C@@H](N)CC(=O)O)C(C)C)[C@@H](C)O)[C@@H](C)O)C(=O)N[C@@H](Cc1ccccc1)C(=O)N[C@@H](Cc1c[nH]cn1)C(=O)N[C@@H](CCC(=O)O)C(=O)N[C@@H](CC(N)=O)C(=O)N[C@@H](Cc1ccccc1)C(=O)N[C@@H](Cc1ccc(O)cc1)C(=O)N[C@@H](CC(=O)O)C(=O)N[C@@H](Cc1c[nH]c2ccccc12)C(=O)N[C@@H](Cc1ccccc1)C(=O)N[C@H](C(=O)N[C@@H](CCCNC(=N)N)C(=O)N[C@@H](CCC(N)=O)C(=O)N[C@H](C(=O)N[C@@H](CO)C(=O)N[C@@H](CCCCN)C(=O)N[C@@H](CCCCNC(=O)CCCC[C@@H]1SC[C@@H]2NC(=O)N[C@@H]21)C(N)=O)C(C)C)C(C)C` [Clone H2], which “binding to IR when expressed as phage” value (IR [2]) is on record?
**A.** detectable binding

**Q.** And the “Comments (dose response, effect at basal insulin)” value (adipocytes)?
**A.** Some response at basal insulin

**Q.** What about the ED50 (adipocytes) of the same molecule?
**A.** Approx 20 µM

**Q.** And the Resp. (adipocytes)?
**A.** +2

**Q.** And the “ED50 in the effect assay (FFC)” value (adipocytes)?
**A.** 20 to 30 µM

**Q.** And the “n (Hill plot)” value (IR [5]; 20D3 Phage)?
**A.** 1.07

**Q.** And the “n (Hill plot)” value (IR [5]; H2 Phage)?
**A.** 0.71

**Q.** What about the “n (Hill plot)” value (IGF-1R [6]; H2 Phage) of the same molecule?
**A.** 1.21

**Q.** And the “Result (RUs)” value (Insulin receptor [4])?
**A.** 34.6 RUs

**Q.** What about the “Comments (precipitation)” value [7] of the same molecule?
**A.** Insoluble, especially after freeze-thaw

**Q.** And the Ratio [8]?
**A.** 7.2

**Q.** Which “binding to IR when expressed as phage” value (IR [2]) does the source give for `CC[C@H](C)[C@@H]1NC(=O)[C@H](CCCNC(=N)N)NC(=O)[C@H](C(C)C)NC(=O)CNC(=O)[C@H](Cc2c[nH]c3ccccc23)NC(=O)[C@H](CO)NC(=O)[C@H](CCC(N)=O)NC(=O)[C@@H](NC(=O)[C@H](CC(C)C)NC(=O)[C@H](CC(=O)O)NC(=O)[C@H](CCCCN)NC(=O)[C@H](Cc2ccc(O)cc2)NC(=O)[C@@H](N)CC(=O)O)CSSC[C@@H](C(=O)N2CCC[C@H]2C(=O)N[C@@H](CCCCN)C(=O)N[C@@H](CCCCNC(=O)CCCC[C@@H]2SC[C@@H]3NC(=O)N[C@@H]32)C(N)=O)NC(=O)[C@H](CC(C)C)NC(=O)CNC(=O)[C@H](C)NC(=O)[C@H](CC(C)C)NC(=O)[C@H](Cc2c[nH]c3ccccc23)NC(=O)CNC1=O` [JBA5] (H-DYKDLCQSWGVRIGWLAGLCPKK(Biotin)-NH2; disulfide 6-20 (inferred); N-terminus assumed) here?
**A.** do not have detectable binding

**Q.** What about the “Comments (dose response, effect at basal insulin)” value (adipocytes) of the same molecule?
**A.** Slight effect at basal insulin

**Q.** What about the ED50 (adipocytes) of the same molecule?
**A.** > 20 µM

**Q.** What about the Resp. (adipocytes) of the same molecule?
**A.** +2

**Q.** What about the “Autophosph. Blot” value [3] of the same molecule?
**A.** 0

**Q.** What about the Ratio [8] of the same molecule?
**A.** 1.8

**Q.** Which results are given for FHENFYDWFVRQVSKK [Clone H2C]?
**A.** Comments (dose response, effect at basal insulin) (adipocytes): Some response at basal insulin; ED50 (adipocytes): Approx 20 µM; Resp. (adipocytes): +2; ED50 in the effect assay (FFC) (adipocytes): 20 to 30 µM; n (Hill plot) (IR [5]; 20D3 Phage): 1.03; n (Hill plot) (IR [5]; H2 Phage): 0.62; n (Hill plot) (IGF-1R [6]; 20D3 Phage): 0.81; n (Hill plot) (IGF-1R [6]; H2 Phage): 1.02; binding of rVab 12H10 to IR (Insulin receptor [9]): 40-50 % of control; Comments (precipitation) [7]: Precipitates; Comments (soluble under assay conditions) ([7]; under assay conditions, no ppt in microscope, low magnification): ≥ 20 µM; Ratio [8]: 8.6
